Measurements: US20230073855A1, “SOFT GEL CAPSULE COMPRISING A SELECTIVE ESTROGEN RECEPTOR MODULATOR” (PHARMATHEN S.A., priority 2018, published 2023)
In brackets after ≈: the same amount, converted by molar mass.

Legend:
physchem [1] = conditions: oil or lipid, thermodynamic from solid, Dubcare GPE 810 ®/(Tween 80 ®/PEG 600)
Protocol: (§1) In order to investigate drug solubility in SMEDDS, excess amount of drug was added to few mL of each excipient, placed in small bottles and the mixture was vortexed, in room temperature to facilitate solubilization.
The solubility of Dubcare GPR 810® in different oil/(S/CS) was tested. […] The S/CS ration was kept constant at 1/1.

[2] = cited from earlier work
physchem [3] = conditions: thermodynamic from solid
Protocol: as §1
Tween 80® and Tween 20® were used as surfactants, Transcutol® along with PG 200 and PEG 600 were used as co-surfactants.

physchem [4] = conditions: thermodynamic from solid; remark: listed apart in the source
Protocol: The solubility is calculated by the API quantity dissolved in 5 mL of each excipient.

Which solubility (physchem [1]; ratio oil/(S/CS) 1:9, S/CS 1/1) does the source give for `OCCOc1ccc(/C(=C(/CCCl)c2ccccc2)c2ccccc2)cc1` [Ospemifene] here?
The solubility was 160 mg/mL.

What about the solubility (physchem [1]; ratio oil/(S/CS) 2:8, S/CS 1/1) of the same molecule?
The solubility was 150 mg/mL.

What about the solubility (physchem [1]; ratio oil/(S/CS) 3:7, S/CS 1/1) of the same molecule?
The solubility was 150 mg/mL.

What about the solubility (physchem [1]; ratio oil/(S/CS) 7:3, S/CS 1/1) of the same molecule?
The solubility was 80 mg/mL.

What about the solubility (physchem [1]; ratio oil/(S/CS) 8:2, S/CS 1/1) of the same molecule?
Its solubility is 60 mg/mL.

And the “Time to peak median serum concentration” value ([2]; fasting postmenopausal women)?
The value was “approximately two”.

And the “Increase of bioavailability with food intake” value ([2]; with food intake, EP1713458)?
Its value is “two- to three”.

And the solubility (physchem [3]; organic solvent or mixture, Tween 20 ®/Transcutol ®, ratio S/CS 1:1)?
The solubility was 210 mg/mL.

And the solubility (physchem [3]; organic solvent or mixture, Tween 20 ®/Transcutol ®, ratio S/CS 1:2)?
The solubility was 240 mg/mL.

And the solubility (physchem [3]; organic solvent or mixture, Tween 20 ®/Transcutol ®, ratio S/CS 2:1)?
Its solubility is 190 mg/mL.

And the solubility (physchem [3]; surfactant/co-surfactant mixture Tween 20/PG 200, S/CS 1:1, organic solvent or mixture, Tween 20 ®/PG 200, ratio S/CS 1:1)?
Its solubility is 110 mg/mL.

And the solubility (physchem [3]; surfactant/co-surfactant mixture Tween 20/PG 200, S/CS 1:2, organic solvent or mixture, Tween 20 ®/PG 200, ratio S/CS 1:2)?
Its solubility is 120 mg/mL.

What about the solubility (physchem [3]; surfactant/co-surfactant mixture Tween 20/PG 200, S/CS 2:1, organic solvent or mixture, Tween 20 ®/PG 200, ratio S/CS 2:1) of the same molecule?
Its solubility is 120 mg/mL.

What about the solubility (physchem [3]; surfactant/co-surfactant mixture Tween 20/PG 600, S/CS 1:1, organic solvent or mixture, Tween 20 ®/PG 600, ratio S/CS 1:1) of the same molecule?
Its solubility is 140 mg/mL.

What about the solubility (physchem [3]; surfactant/co-surfactant mixture Tween 20/PG 600, S/CS 1:2, organic solvent or mixture, Tween 20 ®/PG 600, ratio S/CS 1:2) of the same molecule?
The solubility was 140 mg/mL.

What about the solubility (physchem [3]; surfactant/co-surfactant mixture Tween 20/PG 600, S/CS 2:1, organic solvent or mixture, Tween 20 ®/PG 600, ratio S/CS 2:1) of the same molecule?
The solubility was 140 mg/mL.

And the solubility (physchem [3]; surfactant/co-surfactant mixture Tween 80/PEG 600, S/CS 1:1, organic solvent or mixture, Tween 80 ®/PEG 600, ratio S/CS 1:1)?
Its solubility is 140 mg/mL.

What about the solubility (physchem [3]; surfactant/co-surfactant mixture Tween 80/PEG 600, S/CS 1:2, organic solvent or mixture, Tween 80 ®/PEG 600, ratio S/CS 1:2) of the same molecule?
The solubility was 120 mg/mL.

And the solubility (physchem [3]; surfactant/co-surfactant mixture Tween 80/PEG 600, S/CS 2:1, organic solvent or mixture, Tween 80 ®/PEG 600, ratio S/CS 2:1)?
The solubility was 140 mg/mL.

And the solubility (physchem [4]; Castor oil #1 (neat excipient), oil or lipid, in Castor oil #1, room temperature)?
Its solubility is 60 mg/mL (≈ 158 mM).

And the solubility (physchem [4]; Castor oil #2 (neat excipient), oil or lipid, in Castor oil #2, room temperature)?
The solubility was 60 mg/mL (≈ 158 mM).

What about the solubility (physchem [4]; Dubcare GPE 810 (neat excipient), organic solvent or mixture, in Dubcare GPE 810 ®, room temperature) of the same molecule?
The solubility was 180 mg/mL (≈ 475 mM).

What about the solubility (physchem [4]; Ethyl Oleate (neat excipient), oil or lipid, in Ethyl Oleate, room temperature) of the same molecule?
The solubility was 20 mg/mL (≈ 52.8 mM).

What about the solubility (physchem [4]; Isopropyl myristate (neat excipient), oil or lipid, in Isopropyl myristate, room temperature) of the same molecule?
Its solubility is 150 mg/mL (≈ 396 mM).

What about the solubility (physchem [4]; Labrafac Lipophile (neat excipient), oil or lipid, in Labrafac Lipophile ®, room temperature) of the same molecule?
Its solubility is 100 mg/mL (≈ 264 mM).

And the solubility (physchem [4]; Miglyol 812 (neat excipient), oil or lipid, in Miglyol 812, room temperature)?
The solubility was 60 mg/mL (≈ 158 mM).

What about the solubility (physchem [4]; Oleic acid (neat excipient), oil or lipid, in Oleic acid, room temperature) of the same molecule?
The solubility was 10 mg/mL (≈ 26.4 mM).

What about the solubility (physchem [4]; Propylene glycol (neat excipient), organic solvent or mixture, in Propylene glycol, room temperature) of the same molecule?
The solubility was 50 mg/mL (≈ 132 mM).

What about the solubility (physchem [4]; Sesame oil (neat excipient), oil or lipid, in Sesame oil, room temperature) of the same molecule?
The solubility was 60 mg/mL (≈ 158 mM).

And the solubility (physchem [4]; Transcutol (neat excipient), organic solvent or mixture, in Transcutol ®, room temperature)?
The solubility was 280 mg/mL (≈ 739 mM).

What about the solubility (physchem [4]; Tween 20 (neat excipient), organic solvent or mixture, in Tween 20 ®, room temperature) of the same molecule?
The solubility was 150 mg/mL (≈ 396 mM).

What about the solubility (physchem [4]; Tween 80 (neat excipient), organic solvent or mixture, in Tween 80 ®, room temperature) of the same molecule?
Its solubility is 100 mg/mL (≈ 264 mM).

What about the solubility (physchem [4]; Tyloxapol (neat excipient), organic solvent or mixture, in Tyloxapol, room temperature) of the same molecule?
Its solubility is 140 mg/mL (≈ 369 mM).

And the solubility (physchem [4]; organic solvent or mixture, in Kolliphpor ® RH40, room temperature)?
The solubility was 180 mg/mL (≈ 475 mM).

What about the solubility (physchem [4]; organic solvent or mixture, in PG 200, room temperature) of the same molecule?
Its solubility is 100 mg/mL (≈ 264 mM).

And the solubility (physchem [4]; organic solvent or mixture, in PG 600, room temperature)?
The solubility was 160 mg/mL (≈ 422 mM).
